Test results as given in patent publication US20080255206A1, “Rxr Agonists and Antagonists, Alone or in Combination with Ppar Ligands, in the Treatment of Metabolic and Cardiovascular Diseases” (priority 2005, published 2008).

Tests used:
[1] = molecular target: T1, RXRα Homodimer (Homo sapiens, UniProt P19793); assay: RXRα homodimer activation (transactivation) assay; assay type: cell-based
T1 construct: expressed in transfected cells; host or cells: mammalian cells (BHK21, CV1, etc)
T1 sequence (P19793 1-462): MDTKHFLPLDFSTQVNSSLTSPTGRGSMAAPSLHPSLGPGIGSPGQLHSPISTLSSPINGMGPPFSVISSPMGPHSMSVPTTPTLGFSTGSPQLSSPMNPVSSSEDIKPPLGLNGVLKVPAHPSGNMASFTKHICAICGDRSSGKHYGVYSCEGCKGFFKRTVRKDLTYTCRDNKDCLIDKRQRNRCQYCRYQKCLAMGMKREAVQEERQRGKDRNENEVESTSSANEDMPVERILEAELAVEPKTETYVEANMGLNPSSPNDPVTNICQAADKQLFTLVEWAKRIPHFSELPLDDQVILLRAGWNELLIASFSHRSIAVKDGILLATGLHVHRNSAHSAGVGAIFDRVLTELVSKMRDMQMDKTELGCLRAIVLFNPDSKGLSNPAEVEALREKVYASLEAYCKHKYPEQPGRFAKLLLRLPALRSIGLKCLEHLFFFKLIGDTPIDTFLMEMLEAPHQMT
Outline: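 GAL4 DNA-binding domain–LBD chimera co-transfected into mammalian cells (e.g. BHK21, CV1) with a GAL4-site luciferase reporter. EC50 and partial/full agonism judged against a reference or natural ligand.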

[2] = molecular target: T2, RXRα (Homo sapiens, UniProt P19793); assay: Retinoid activation assay, RXRα (Schneider SL-3 cells, luciferase reporter); assay type: cell-based; details: read-out: Activation EC50 RXR α
T2 sequence (P19793 1-462): T1 sequence (P19793 1-462)
Outline: (§1)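 Drosophila Schneider SL-3 cells transiently transfected (Ca-phosphate, 3-4 h before assay) with full-length RXR cDNA plus luciferase reporter driven by three rat CRBP RXR response elements on an alcohol dehydrogenase promoter. Supernatant luciferase read after incubation; EC50 is concentration giving half-maximal activation.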

[3] = molecular target: T2, RXRα; assay: Retinoid binding assay, RXRα; set-up: made in house; host or cells: E. coli; details: [3H] 9-cis retinoic acid 20 nM; read-out: Binding Affinity IC50 RXR α
Excerpt: (§2) The DEF domains of RAR's and the full length RXR's, expressed in E.coli, are used to measure competitive retinoid binding. […] 9-cis retinoic acid (for RXR's), respectively. […] Separation of bound from free radioactivity is achieved by charcoal/dextran (RAR's) or by desalting columns (RXR's). […] Retinoid Activation Assays

[4] = molecular target: T3, RXRγ (Homo sapiens, UniProt P48443); assay: Retinoid activation assay, RXRγ (Schneider SL-3 cells, luciferase reporter); assay type: cell-based; details: read-out: Activation EC50 RXR γ
T3 sequence (P48443 1-463): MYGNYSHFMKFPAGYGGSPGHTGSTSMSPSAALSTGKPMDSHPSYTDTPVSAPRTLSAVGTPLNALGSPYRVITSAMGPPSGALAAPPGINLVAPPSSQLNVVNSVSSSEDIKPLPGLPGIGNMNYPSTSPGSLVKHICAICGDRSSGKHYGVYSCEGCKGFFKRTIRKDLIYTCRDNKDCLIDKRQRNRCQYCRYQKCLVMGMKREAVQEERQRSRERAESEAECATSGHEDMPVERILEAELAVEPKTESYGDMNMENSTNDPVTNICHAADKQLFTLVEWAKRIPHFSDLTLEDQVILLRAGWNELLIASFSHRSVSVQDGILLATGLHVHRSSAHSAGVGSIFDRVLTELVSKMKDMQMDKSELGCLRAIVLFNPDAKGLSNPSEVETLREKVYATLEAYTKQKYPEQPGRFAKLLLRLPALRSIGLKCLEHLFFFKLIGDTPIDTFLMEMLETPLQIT
Outline: as §1

[5] = molecular target: T4, PPARγ/RXRα Heterodimer (Homo sapiens, UniProt P19793); assay: PPARγ/RXRα heterodimer activation (transactivation) assay; assay type: cell-based
T4 construct: co-transfected with plasmids expressing the full length RXR heteropartner receptor; expressed in transfected cells
T4 sequence (P19793 1-462): T1 sequence (P19793 1-462)
T4 sequence (P37231 1-505 partner): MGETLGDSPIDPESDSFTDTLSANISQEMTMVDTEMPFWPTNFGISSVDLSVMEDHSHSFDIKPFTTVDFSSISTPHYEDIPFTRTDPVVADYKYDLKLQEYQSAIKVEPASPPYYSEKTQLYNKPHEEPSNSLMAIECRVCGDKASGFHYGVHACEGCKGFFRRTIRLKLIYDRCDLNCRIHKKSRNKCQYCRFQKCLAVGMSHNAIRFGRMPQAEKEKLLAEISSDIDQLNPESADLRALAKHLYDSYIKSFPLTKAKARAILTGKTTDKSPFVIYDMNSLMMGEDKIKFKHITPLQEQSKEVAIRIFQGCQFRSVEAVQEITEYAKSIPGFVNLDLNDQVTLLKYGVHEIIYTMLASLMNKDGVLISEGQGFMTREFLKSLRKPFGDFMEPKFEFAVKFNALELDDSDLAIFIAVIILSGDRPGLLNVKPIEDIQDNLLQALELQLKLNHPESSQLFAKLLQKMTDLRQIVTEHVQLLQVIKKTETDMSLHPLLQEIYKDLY
Outline: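 Cell-based luciferase transactivation: cells co-transfected with plasmids for full-length PPARγ, full-length RXR heteropartner and a luciferase reporter driven by multiple copies of the natural PPAR response element; ligand-dependent reporter activity measured.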

[6] = molecular target: T3, RXRγ; assay: Retinoid binding assay, RXRγ; set-up: made in house; host or cells: E. coli; details: [3H] 9-cis retinoic acid 20 nM; read-out: Binding Affinity IC50 RXR γ
Excerpt: as §2

Q: Which EC50 [1] does the source give for `CC(/C=C/c1sccc1-c1ccc2c(c1)C(C)(C)CCC2(C)C)=C\C(=O)O` [Compound 9] here?
A: 2.5 nM

Q: And the EC50 [2]?
A: 2.5 nM

Q: And the IC50 [3]?
A: 230 nM

Q: And the EC50 [4]?
A: 90 nM

Q: What about the EC50 [5] of the same molecule?
A: 38 nM

Q: And the IC50 [6]?
A: 230 nM
